Earlier results as cited in patent US11679093B2, “2-naphthimidamides, analogues thereof, and methods of treatment using same” (priority 2018, dated 2023).

Tested on: Influenza A virus (IAV)
Conditions: fully differentiated mucociliated bronchiolar epithelium isolated from multiple human donors

**Q.** With `N=C(N)Nc1ccc(C(=O)Oc2ccc3cc(C(=N)N)ccc3c2)cc1` [Nafamostat, 6-carbamimidoylnaphthalen-2-yl 4-guanidinobenzoate] as the molecule, how does the antiviral activity read?
**A.** exhibit antiviral activity
